≈ marks a conversion by molar mass, not a printed value.
What was measured:
[1] = molecular target: Beta-2 adrenergic receptor (Homo sapiens) (UniProt P07550); test: Agonist activity at ARbeta2 (unknown origin) expressed in CHO-K1 cells co-expressing G alpha 15 assessed as inhibition of isoproterenol induced calcium response upto 100 uM incubated for 10 mins by calcium mobilization assay relative to control; assay type: functional, cell-based; parameters: scale not given: the % may be the effect or the level left
Chain of Beta-2 adrenergic receptor (Homo sapiens) (P07550 whole entry, looked up): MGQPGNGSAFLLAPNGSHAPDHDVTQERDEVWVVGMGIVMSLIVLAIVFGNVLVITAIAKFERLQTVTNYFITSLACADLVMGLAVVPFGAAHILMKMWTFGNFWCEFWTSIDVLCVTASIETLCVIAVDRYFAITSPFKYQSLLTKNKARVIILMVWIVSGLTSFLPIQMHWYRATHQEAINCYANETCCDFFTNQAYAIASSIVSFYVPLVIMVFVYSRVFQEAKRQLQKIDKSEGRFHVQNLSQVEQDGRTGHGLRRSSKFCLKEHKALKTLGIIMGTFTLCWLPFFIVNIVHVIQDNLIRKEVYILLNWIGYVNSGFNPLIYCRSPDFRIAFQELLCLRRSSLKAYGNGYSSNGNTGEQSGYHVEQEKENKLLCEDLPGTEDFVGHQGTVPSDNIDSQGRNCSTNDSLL

Staphylococcus aureus [2] = test: Antibacterial activity against methicillin-resistant Staphylococcus aureus […] assessed as bacterial growth inhibition measured after 24 hrs by CLSI based two-fold serial dilution method; assay type: functional
[3] = Antioxidant activity assessed as DPPH radical scavenging activity measured after 30 mins by UV-visible spectrophotometric analysis; assay type: functional
Nakaseomyces glabratus = test: Antifungal activity against Candida glabrata ATCC 15126 assessed as reduction in microbial growth incubated for 24 hrs by CLSI based broth micro-dilution method; assay type: functional
Staphylococcus aureus [4] = test: Antibacterial activity against vancomycin-intermediate Staphylococcus aureus ATCC 700787 assessed as bacterial growth inhibition incubated for 24 hrs by CLSI based two-fold serial dilution method; assay type: functional
[5] = Antioxidant activity assessed as ABTS radical scavenging activity incubated for 30 mins by UV-visible spectrphotometric analysis; assay type: functional
Staphylococcus aureus [6] = test: Antibacterial activity against methicillin-sensitive Staphylococcus aureus ATCC 29213 assessed as bacterial growth inhibition measured after 24 hrs by CLSI based two-fold serial dilution method; assay type: functional
[7] = molecular target: Beta-1 adrenergic receptor (Homo sapiens) (UniProt P08588); test: Agonist activity at ARbeta1 (unknown origin) expressed in CHO-K1 cells co-expressing G alpha 15 assessed as inhibition of isoproterenol induced calcium response upto 100 uM incubated for 10 mins by calcium mobilization assay relative to control; assay type: functional, cell-based; settings: filed as agonist
Chain of Beta-1 adrenergic receptor (Homo sapiens) (P08588 whole entry, looked up): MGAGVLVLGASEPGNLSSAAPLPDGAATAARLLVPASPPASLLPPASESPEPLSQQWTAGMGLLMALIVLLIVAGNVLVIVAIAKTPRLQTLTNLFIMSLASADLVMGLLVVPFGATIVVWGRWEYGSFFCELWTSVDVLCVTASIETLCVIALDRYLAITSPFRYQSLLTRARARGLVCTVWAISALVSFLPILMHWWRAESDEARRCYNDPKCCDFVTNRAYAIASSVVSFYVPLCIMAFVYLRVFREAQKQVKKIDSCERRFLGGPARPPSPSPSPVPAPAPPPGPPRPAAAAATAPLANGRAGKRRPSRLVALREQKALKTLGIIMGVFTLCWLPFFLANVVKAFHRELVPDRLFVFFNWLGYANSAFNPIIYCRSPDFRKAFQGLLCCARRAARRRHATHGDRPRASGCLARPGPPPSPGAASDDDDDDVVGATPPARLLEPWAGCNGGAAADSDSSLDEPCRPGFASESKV

[8] = molecular target: Alpha-1A adrenergic receptor (Homo sapiens) (UniProt P35348); test: Antagonist activity at ARalpha1A (unknown origin) expressed in HEK293 cells co-expressing Galpha16 assessed as inhibition of Phenylephrine induced calcium response upto 100 uM incubated for 10 mins by calcium mobilization assay; assay type: functional, cell-based
Chain of Alpha-1A adrenergic receptor (Homo sapiens) (P35348 whole entry): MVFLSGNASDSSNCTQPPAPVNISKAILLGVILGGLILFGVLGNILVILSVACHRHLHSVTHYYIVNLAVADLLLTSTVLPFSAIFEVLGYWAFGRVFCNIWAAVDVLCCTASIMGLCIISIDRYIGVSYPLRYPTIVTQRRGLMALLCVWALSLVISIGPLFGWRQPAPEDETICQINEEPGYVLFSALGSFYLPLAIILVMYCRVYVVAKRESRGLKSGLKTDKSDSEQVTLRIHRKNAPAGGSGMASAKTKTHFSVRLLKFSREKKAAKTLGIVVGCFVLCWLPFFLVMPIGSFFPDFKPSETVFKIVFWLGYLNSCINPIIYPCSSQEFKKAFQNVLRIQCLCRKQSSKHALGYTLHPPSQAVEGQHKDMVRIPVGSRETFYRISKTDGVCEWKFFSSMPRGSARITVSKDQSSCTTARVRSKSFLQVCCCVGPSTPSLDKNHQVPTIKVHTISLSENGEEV

Trypanosoma cruzi = test: Antitrypanosomal activity against Trypanosoma cruzi trypomastigotes infected in Swiss albino mouse assessed a s reduction in parasitic growth and measured after 24 hrs; assay type: functional, organism-based
Leishmania amazonensis = test: Antileishmanial activity against Leishmania amazonensis amastigotes assessed as inhibition of parasitic growth; assay type: functional, organism-based
Klebsiella pneumoniae = test: Antimicrobial activity against Klebsiella pneumoniae 02-63 assessed as reduction in microbial cell growth incubated for 16 to 18 hrs by Mueller-Hinton broth based microdilution method; assay type: functional; settings: time 16-18 hrs
Influenza A virus = test: Antiviral activity against Influenza A virus H1N1 infected in dog MDCK cells assessed as inhibition in virus-induced cytopathic effect incubated for 48 hrs by SRB assay; assay type: functional, organism-based
Cryptococcus neoformans = test: Antifungal activity against Cryptococcus neoformans assessed as reduction in fungal cell growth incubated for 24 hrs by microbroth dilution method; assay type: functional
Staphylococcus aureus [9] = test: Antibacterial activity against Staphylococcus aureus 01-159 assessed as bacterial growth inhibition measured after 16 to 18 hrs by Mueller-Hinton broth based microdilution method; assay type: functional; settings: time 16-18 hrs
Candida albicans [10] = test: Antifungal activity against Candida albicans Y0109 assessed as reduction in microbial growth by micro-broth dilution method; assay type: functional
Streptococcus pneumoniae = test: Antimicrobial activity against Streptococcus pneumoniae 02-123 assessed as reduction in microbial growth incubated for 16 to 18 hrs by Mueller-Hinton broth based microdilution method; assay type: functional; settings: time 16-18 hrs
[11] = molecular target: Alpha amylase (Homo sapiens) (UniProt P0DUB6); test: Inhibition of alpha-amylase (unknown origin) at 0.556 ug/ml relative to control; settings: dose 0.556 µg/ml
Chain of Alpha amylase (Homo sapiens) (P0DUB6 whole entry, looked up): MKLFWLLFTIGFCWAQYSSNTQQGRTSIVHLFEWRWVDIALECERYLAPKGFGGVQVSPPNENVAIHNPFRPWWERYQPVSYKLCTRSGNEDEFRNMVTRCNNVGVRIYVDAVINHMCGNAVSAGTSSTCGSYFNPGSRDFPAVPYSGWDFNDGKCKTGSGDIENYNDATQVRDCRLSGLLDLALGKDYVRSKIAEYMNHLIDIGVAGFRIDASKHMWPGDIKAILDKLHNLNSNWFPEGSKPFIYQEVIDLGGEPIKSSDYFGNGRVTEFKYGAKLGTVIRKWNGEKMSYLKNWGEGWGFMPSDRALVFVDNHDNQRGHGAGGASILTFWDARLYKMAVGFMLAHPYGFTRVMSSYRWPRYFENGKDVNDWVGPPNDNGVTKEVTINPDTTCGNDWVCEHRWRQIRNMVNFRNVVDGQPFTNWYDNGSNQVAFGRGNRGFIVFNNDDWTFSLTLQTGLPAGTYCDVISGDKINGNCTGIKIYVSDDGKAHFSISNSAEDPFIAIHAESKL

Candida albicans [12] = test: Antifungal activity against Candida albicans SC5314 assessed as reduction in fungal growth incubated for 24 hrs by serial dilution method; assay type: functional
RAW264.7 [13] = test: Anti-inflammatory activity against mouse RAW264.7 cells assessed as inhibition of LPS-induced NO production at 10 uM preincubated with compound for 2 hrs followed by LPS stimulation and measured after 24 hrs by Griess reagent based analysis; assay type: functional, cell-based
[14] = molecular target: Rho-associated protein kinase 1 (Homo sapiens, UniProt Q13464); test: Inhibition of ROCK1 (unknown origin) incubated for 1 hr by FRET based Z'-lyte assay
Chain of Rho-associated protein kinase 1 (Q13464 whole entry): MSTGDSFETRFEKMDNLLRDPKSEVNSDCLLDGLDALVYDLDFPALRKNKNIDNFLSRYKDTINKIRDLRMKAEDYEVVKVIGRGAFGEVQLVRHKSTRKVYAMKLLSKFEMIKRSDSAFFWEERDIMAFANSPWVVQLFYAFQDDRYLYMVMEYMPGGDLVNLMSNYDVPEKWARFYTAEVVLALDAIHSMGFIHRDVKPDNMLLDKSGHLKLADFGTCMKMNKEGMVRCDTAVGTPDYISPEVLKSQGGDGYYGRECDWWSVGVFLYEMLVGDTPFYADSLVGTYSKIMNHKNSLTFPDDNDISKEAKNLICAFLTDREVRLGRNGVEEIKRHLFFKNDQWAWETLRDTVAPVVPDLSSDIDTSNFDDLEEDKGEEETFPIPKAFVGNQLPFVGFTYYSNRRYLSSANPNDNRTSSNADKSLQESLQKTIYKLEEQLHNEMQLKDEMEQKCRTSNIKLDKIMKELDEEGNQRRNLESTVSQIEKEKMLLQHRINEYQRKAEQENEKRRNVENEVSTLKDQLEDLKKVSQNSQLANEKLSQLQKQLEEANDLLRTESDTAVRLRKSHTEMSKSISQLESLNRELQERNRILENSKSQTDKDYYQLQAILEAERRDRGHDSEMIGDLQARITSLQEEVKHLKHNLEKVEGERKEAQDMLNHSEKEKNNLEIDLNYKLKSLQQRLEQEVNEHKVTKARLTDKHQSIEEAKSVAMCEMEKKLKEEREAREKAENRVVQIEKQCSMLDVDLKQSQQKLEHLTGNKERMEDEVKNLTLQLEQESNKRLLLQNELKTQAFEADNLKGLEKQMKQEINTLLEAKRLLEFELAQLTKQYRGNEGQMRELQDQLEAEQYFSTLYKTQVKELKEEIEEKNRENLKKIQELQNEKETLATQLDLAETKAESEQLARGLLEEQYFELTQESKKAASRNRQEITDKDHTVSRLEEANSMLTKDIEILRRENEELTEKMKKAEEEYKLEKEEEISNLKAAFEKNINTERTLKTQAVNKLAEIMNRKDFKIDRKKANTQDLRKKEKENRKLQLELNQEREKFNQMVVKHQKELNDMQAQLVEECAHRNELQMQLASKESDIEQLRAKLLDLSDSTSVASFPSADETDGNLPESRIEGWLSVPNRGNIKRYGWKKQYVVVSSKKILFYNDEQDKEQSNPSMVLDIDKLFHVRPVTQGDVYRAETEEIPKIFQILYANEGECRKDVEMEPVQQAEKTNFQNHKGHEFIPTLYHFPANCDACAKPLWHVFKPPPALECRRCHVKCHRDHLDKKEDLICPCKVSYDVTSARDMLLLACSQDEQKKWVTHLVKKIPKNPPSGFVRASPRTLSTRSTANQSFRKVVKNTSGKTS

[15] = molecular target: Rho-associated protein kinase 2 (Homo sapiens, UniProt O75116); test: Inhibition of ROCK2 (unknown origin) incubated for 1 hr by FRET based Z'lyte assay
Chain of Rho-associated protein kinase 2 (O75116 whole entry): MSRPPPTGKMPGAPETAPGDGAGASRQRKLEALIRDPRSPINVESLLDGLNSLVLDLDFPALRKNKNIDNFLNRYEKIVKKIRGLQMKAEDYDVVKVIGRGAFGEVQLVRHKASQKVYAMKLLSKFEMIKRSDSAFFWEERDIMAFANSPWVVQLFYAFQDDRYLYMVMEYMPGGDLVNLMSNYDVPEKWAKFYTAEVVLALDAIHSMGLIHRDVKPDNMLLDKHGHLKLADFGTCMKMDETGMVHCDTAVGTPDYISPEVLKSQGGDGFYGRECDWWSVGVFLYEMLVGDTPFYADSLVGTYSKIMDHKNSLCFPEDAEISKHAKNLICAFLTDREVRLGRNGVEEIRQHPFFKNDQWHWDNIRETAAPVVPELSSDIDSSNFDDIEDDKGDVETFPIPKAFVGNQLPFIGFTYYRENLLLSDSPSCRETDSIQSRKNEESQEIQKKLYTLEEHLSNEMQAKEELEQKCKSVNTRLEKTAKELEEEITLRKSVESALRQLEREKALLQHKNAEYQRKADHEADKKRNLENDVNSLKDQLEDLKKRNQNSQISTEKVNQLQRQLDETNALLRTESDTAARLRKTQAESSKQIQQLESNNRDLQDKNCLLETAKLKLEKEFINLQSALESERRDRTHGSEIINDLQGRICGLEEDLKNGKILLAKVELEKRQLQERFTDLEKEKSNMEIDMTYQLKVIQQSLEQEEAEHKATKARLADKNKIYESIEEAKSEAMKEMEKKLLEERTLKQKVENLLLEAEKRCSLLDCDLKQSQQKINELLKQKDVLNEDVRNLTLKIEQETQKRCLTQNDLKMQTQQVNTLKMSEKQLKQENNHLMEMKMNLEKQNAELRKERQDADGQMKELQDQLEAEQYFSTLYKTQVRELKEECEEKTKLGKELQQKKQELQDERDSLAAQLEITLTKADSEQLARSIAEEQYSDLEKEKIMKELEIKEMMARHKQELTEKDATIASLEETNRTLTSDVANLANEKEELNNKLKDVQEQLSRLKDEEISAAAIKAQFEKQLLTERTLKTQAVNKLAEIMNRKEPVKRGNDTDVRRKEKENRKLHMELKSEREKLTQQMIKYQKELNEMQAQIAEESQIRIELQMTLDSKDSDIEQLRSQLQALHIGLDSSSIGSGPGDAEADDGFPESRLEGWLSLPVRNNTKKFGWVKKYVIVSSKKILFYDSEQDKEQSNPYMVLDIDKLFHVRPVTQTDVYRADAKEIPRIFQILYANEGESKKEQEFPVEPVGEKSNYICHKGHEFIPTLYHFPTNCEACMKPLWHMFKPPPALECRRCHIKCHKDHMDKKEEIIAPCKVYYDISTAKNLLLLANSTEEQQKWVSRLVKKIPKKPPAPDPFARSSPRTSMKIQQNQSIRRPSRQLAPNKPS

[16] = Immunosuppressive activity in Kunming mouse splenocyte assessed as reduction in ConA-stimulated T-lymphocytes proliferation at 20 uM incubated for 72 hrs by CCK-8 assay relative to control; assay type: functional, T-cell; parameters: scale not given: the % may be the effect or the level left
HepG2 = test: Cytotoxicity against human HepG2 cells assessed as reduction in cell viability measured after 72 hrs by MTT assay; assay type: functional, cell-based; settings: HepG2, 72 h
[17] = Immunosuppressive activity in Kunming mouse splenocyte assessed as inhibition of LPS-induced B-lymphocytes proliferation at 20 uM incubated for 72 hrs by CCK-8 assay relative to control; assay type: functional; parameters: scale not given: the % may be the effect or the level left
RAW264.7 [18] = test: Antiinflammatory activity against mouse RAW264.7 cells assessed as inhibition of LPS-induced TNF-alpha secretion at 20 uM after 24 hrs by ELISA relative to control; assay type: functional; parameters: scale not given: the % may be the effect or the level left
RAW264.7 [19] = test: Antiinflammatory activity against mouse RAW264.7 cells assessed as inhibition of LPS-induced TNF-alpha secretion at 4 uM after 24 hrs by ELISA relative to control; assay type: functional; parameters: scale not given: the % may be the effect or the level left
[20] = Cytotoxicity against human SHG-44 cells assessed as reduction in cell viability measured after 48 hrs by MTT assay; assay type: functional, cell-based; settings: SHG-44, 48 h
[21] = Cytotoxicity against human CHG-5 cells assessed as reduction in cell viability measured after 48 hrs by MTT assay; assay type: functional, cell-based; settings: CHG-5, 48 h
SW480 = test: Cytotoxicity against human SW480 cells assessed as reduction in cell viability incubated for 48 hrs by MTT assay; assay type: functional, cell-based; settings: SW480, 48 h
SMMC-7721 = test: Cytotoxicity against human SMMC-7721 cells assessed as reduction in cell viability incubated for 48 hrs by MTT assay; assay type: functional, cell-based; settings: SMMC-7721, 48 h
HL-60 = test: Cytotoxicity against human HL-60 cells assessed as reduction in cell viability measured after 48 hrs by MTT assay; assay type: functional, cell-based; settings: HL-60, 48 h
CCF-STTG1 = test: Cytotoxicity against human CCF-STTGI assessed as reduction in cell viability measured after 48 hrs by MTT assay; assay type: functional, cell-based; settings: CCF-STTG1, 48 h
U-251 = test: Cytotoxicity against human U-251 cells assessed as reduction in cell viability measured after 48 hrs by MTT assay; assay type: functional, cell-based; settings: U-251, 48 h
RAW264.7 [22] = test: Antiinflammatory activity in LPS-induced mouse RAW264.7 cells assessed as reduction in COX-2 level at 100 uM pretreated for 1 hr followed by LPS stimulation and measured after 48 hrs by ELISA relative to control; assay type: functional; parameters: scale not given: the % may be the effect or the level left; settings: time 49 hrs
[23] = molecular target: Peroxisome proliferator-activated receptor alpha (Homo sapiens) (UniProt Q07869); test: Activation of PPARalpha (unknown origin) expressed in human HepG2 cells assessed as fold change at 1.47 ug/ml incubated for 24 hrs by luciferase assay; assay type: cell-based; settings: filed as activator, dose 1.47 µg/ml
Chain of Peroxisome proliferator-activated receptor alpha (Homo sapiens) (Q07869 whole entry): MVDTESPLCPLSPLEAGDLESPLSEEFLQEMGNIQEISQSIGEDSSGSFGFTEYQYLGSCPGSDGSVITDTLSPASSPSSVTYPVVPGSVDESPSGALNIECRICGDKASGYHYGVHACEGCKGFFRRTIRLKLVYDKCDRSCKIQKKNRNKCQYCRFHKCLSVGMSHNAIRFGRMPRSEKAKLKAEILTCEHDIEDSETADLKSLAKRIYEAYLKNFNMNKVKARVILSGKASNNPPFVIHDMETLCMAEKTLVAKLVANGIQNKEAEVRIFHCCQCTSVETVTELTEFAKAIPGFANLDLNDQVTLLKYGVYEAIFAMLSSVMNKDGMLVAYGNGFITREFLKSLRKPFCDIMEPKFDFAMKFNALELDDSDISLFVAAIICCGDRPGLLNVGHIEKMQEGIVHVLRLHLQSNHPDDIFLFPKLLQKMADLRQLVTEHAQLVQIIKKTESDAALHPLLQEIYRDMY

RAW264.7 [24] = test: Antiinflammatory activity against mouse RAW264.7 cells assessed as inhibition of LPS-induced nitric oxide production at 25 uM measured after 24 hrs relative to control; assay type: functional; parameters: scale not given: the % may be the effect or the level left
[25] = Immunosuppressive activity in Kunming mouse splenocyte assessed as reduction in ConA-stimulated T-lymphocytes proliferation incubated for 72 hrs by CCK-8 assay; assay type: functional, cell-based; settings: T-cell
RAW264.7 [26] = test: Anti-inflammatory activity in mouse RAW264.7 cells assessed as inhibition of LPS-induced TNFalpha production at 20 uM preincubated for 1 hr followed by LPS addition and measured after 24 hrs; assay type: functional; parameters: scale not given: the % may be the effect or the level left; settings: time 25 hrs
[27] = molecular target: T1, Prostaglandin G/H synthase 2 (Homo sapiens, UniProt P35354); test: Inhibition of human recombinant COX-2 using arachidonic acid as substrate preincubated with compound for 15 mins followed by substrate addition and measured after 15 mins by fluorescence based analysis
T1 sequence (P35354 whole entry): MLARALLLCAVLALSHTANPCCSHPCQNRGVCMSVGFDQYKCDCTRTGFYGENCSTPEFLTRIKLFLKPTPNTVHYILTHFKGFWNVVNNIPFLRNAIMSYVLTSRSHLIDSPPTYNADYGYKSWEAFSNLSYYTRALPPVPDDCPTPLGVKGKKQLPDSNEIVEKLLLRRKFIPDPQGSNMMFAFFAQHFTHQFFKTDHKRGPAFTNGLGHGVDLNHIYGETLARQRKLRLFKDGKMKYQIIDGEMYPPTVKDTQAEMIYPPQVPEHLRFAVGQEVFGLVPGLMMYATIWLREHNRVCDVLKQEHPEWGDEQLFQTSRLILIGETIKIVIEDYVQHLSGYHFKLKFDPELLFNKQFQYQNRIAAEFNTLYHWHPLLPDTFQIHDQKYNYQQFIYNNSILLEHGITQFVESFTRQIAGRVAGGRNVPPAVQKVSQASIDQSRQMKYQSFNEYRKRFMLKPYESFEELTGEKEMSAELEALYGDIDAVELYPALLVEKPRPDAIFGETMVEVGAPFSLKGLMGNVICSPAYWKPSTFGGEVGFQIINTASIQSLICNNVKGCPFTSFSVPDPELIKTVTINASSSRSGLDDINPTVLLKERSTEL

[28] = molecular target: Tyrosine-protein kinase JAK3 (Homo sapiens, UniProt P52333); test: Inhibition of JAK3 (unknown origin) preincubated for 1 hr followed by substrate addition and measured after 1 hr in the presence of ATP by FRET-based Z'-Lyte assay

For `Oc1cc2c(cc1O)C(c1ccco1)=NCC2`, the Activity [1] was 13.4%.
`O=C1N[C@@H](Cc2ccc(O)c(O)c2)C(=O)N2CCC[C@@H]12` gave an MIC (Staphylococcus aureus [2]) of 256 µg/mL (≈ 927 µM), an EC50 [3] of 12.98 µg/mL (≈ 47 µM) and an MIC (Nakaseomyces glabratus) of 128 µg/mL. The MIC (Staphylococcus aureus [4]) was 256 µg/mL (≈ 927 µM), the EC50 [5] was 1.71 µg/mL (≈ 6.19 µM) and the MIC (Staphylococcus aureus [6]) was 256 µg/mL (≈ 927 µM).
`Oc1cc2c(cc1O)[C@@H](Cc1ccccc1)NCC2` gave an inhibition [7] of 80.3% and an inhibition [8] of 6.1%.
For `Oc1ccc([C@H]2NCCc3cc(O)c(O)cc32)cc1O`, the IC50 (Trypanosoma cruzi) was 0.23 µM and the IC50 (Leishmania amazonensis) was 0.16 µM.
With `O=C1CC[C@H]2c3cc(O)c(O)cc3CCN12` the MIC (Klebsiella pneumoniae) was 128 µg/mL, the IC50 (Influenza A virus) was 56.8 µg/mL (≈ 259 µM) and the MIC80 (Cryptococcus neoformans) was 32 µg/mL (≈ 146 µM). It also gave an MIC (Staphylococcus aureus [9]) of 32 µg/mL (≈ 146 µM), an MIC80 (Candida albicans [10]) of 32 µg/mL and an MIC (Streptococcus pneumoniae) of 128 µg/mL. The inhibition [11] was 17%, the MIC80 (Candida albicans [12]) was greater than 64 µg/mL and the IC50 (RAW264.7 [13]) was 30.3 µM.
In the case of `CC(=O)NCCc1cc(O)c(O)cc1[C@@H](NC(C)=O)C(=O)c1ccc(O)c(O)c1`, the IC50 [14] is reported as 29.1 µM, the IC50 [15] is reported as 17.9 µM and the Activity [16] is reported as 17.01%.
Work on `CCCCCC/C=C\CCCCCCCCC/C(NCCc1ccc(O)c(O)c1)=C1/C(=O)CC[C@H](O)C1=O` yielded an IC50 (HepG2) of 73.9 µM.
Work on `O=CN1CCc2cc(O)c(O)cc2C1` yielded an Activity [17] of 24.18%, an Activity (RAW264.7 [18]) of 31.63% and an Activity (RAW264.7 [19]) of 20.9%. For the same molecule, the Activity [16] was 31.27%.
`Oc1cc2c3c(c1O)c1cc4c(cc1c[n+]3CC2)OCO4` gave an IC50 [20] of 9.4 µM, an IC50 [21] of 9.4 µM and an IC50 (SW480) of 9.4 µM. It also gave an IC50 (SMMC-7721) of 9.4 µM, an IC50 (HL-60) of 9.4 µM and an IC50 (CCF-STTG1) of 9.4 µM. For the same molecule, the IC50 (U-251) was 9.4 µM and the Activity (RAW264.7 [22]) was 96.5%.
Work on `CC(C)(Oc1ccc(C2CC2(Cl)Cl)cc1)C(=O)O` (configuration not stated) yielded a fold change (FC) [23] of 2.2.
In the case of `Oc1ccc(-c2cnccn2)cc1O`, the Activity (RAW264.7 [24]) is reported as 42.11%.
In the case of `CC(=O)NCCc1cc(O)c(O)cc1S(C)(=O)=O`, the IC50 [25] is reported as 33 µM and the Activity (RAW264.7 [26]) is reported as 52.77%.
`CC(=O)NCCc1ccc(NC(=O)c2ccc(O)c(O)c2)c(O)c1` showed an IC50 [27] of 6.86 µM and an IC50 [28] of 12.2 µM.
